# Measured values taken from US10653780B2, “Amino lipids and methods for the delivery of nucleic acids” (ARBUTUS BIOPHARMA CORPORATION, priority 2008, dated 2020).
# Like-named read-outs stand apart in the source and are kept apart here. Marks after values point to notes of the source that are not given here.
# Legend:
# [1] = system: Factor VII (FVII); details: for fold less active than DLinDMA: mouse FVII model; for survival: 15 mg/kg dose, mice
# Text: It is well established that in vivo RNAi silencing of specific hepatocyte proteins can be achieved following intravenous (i.v.) administration of siRNA's encapsulated in, or associated with, select nanoparticles designed for intracellular delivery. […] In this Example, rational design in combination with in vivo screening were applied to systematically modify the structure of DLinDMA and identify molecular features that enhance or reduce cationic lipid potency. More than 30 lipids were synthesized and incorporated into nucleic acid-lipid particles, i.e., lipid nanoparticles (LN) encapsulating an siRNA (LN-siRNA) targeting Factor VII (FVII), a blood clotting component synthesized and secreted by hepatocytes that is readily measured in serum. LN-siRNA systems were prepared using the same process, lipid molar ratios and particle size to minimize effects on activity resulting from formulation characteristics other than the cationic lipid. Each formulation was administered as a single bolus injection over a range of doses enabling an estimate of the siRNA dose required to reduce FVII serum protein concentrations by 50% after 24 h (ED50).
# FVII activity was evaluated in FVII siRNA-treated animals at 24 hours after intravenous (bolus) injection in C57BL/6 mice or 48 hours after intravenous (bolus) injection in SD rats. Six to 8 week old, female C57Bl/6 mice were obtained from Charles River Laboratories and acclimated for one week prior to use in studies. Animals were held in a pathogen-free environment and all procedures involving animals were performed in accordance with the guidelines established by the Canadian Council on Animal Care.
# LN-siRNA systems containing Factor VII siRNA were diluted to the appropriate concentrations in sterile phosphate buffered saline immediately prior to use, and the formulations were administered intravenously via the lateral tail vein in a total volume of 10 ml/kg. After 24 h, animals were anaesthetised with Ketamine/Xylazine and blood was collected by cardiac puncture and processed to serum (Microtainer Serum Separator Tubes; Becton Dickinson, Franklin Lakes, N.J., USA). Serum was tested immediately or stored at −70° C. for later analysis for serum Factor VII levels.
# FVII was measured using a commercially available kit (Biophen FVII Kit™; Aniara Corp., Mason, Ohio), following the manufacturer's instructions at a microplate scale. FVII reduction was determined against untreated control animals, and the results were expressed as % Residual FVII. Five dose levels (0.1, 0.3, 0.5, 1.0, and 3.0 mg/kg) were typically used.
# Serum Factor VII levels were determined using the colorimetric Biophen VII assay kit (Anaira, USA). Briefly, serially diluted pooled control serum (200%-3.125%) and appropriately diluted plasma samples from treated animals were analyzed using the Biophen VII kit according to manufacturer's instructions in 96-well, flat bottom, non-binding polystyrene assay plates (Corning, Corning, N.Y.) and absorbance at 405 nm was measured. A calibration curve was generated using the serial diluted control serum and used to determine levels of Factor VII in serum from treated animals.
# Initial studies were performed in eight to 10 week old, female C57BL/6 mice in two stages. In the first stage, the activity associated with the benchmark lipid DLinDMA was compared to the activity associated with modified forms of DLinDMA.
# [2] = Pharmacokinetic and liver analysis of Cy-3 labeled siRNA in LN-siRNA systems; format: in vivo
# Text: A fluorescently labeled siRNA (Cy-3 labeled luciferase siRNA, Alnylam Pharmaceuticals) was used to measure the siRNA content in plasma and liver after iv administration of LN-siRNA systems. The measurements were done by first extracting the Cy3-siRNA from the protein-containing biological matrix and then analyzing the amount of Cy-3 label in the extract by fluorescence. Two extraction methods were used, a chloroform/methanol mixture for the plasma samples and a commercial phenol/chloroform mixture (Trizol® reagent) with the tissue samples.
# For plasma, blood was collected in EDTA-containing Vacutainer tubes and centrifuged at 1000×g for 10 min at 4-8° C. to isolate the plasma. The plasma was transferred to an eppendorf tube and either assayed immediately or stored in a −30° C. freezer. An aliquot of the plasma (100 μL maximum) was diluted to 500 μL with PBS (145 mM NaCl, 10 mM phosphate, pH 7.5), methanol (1.05 mL and chloroform (0.5 mL) was added, and the sample vortexed to obtain a clear, single phase solution. Water (0.5 mL) and chloroform (0.5 mL) was then added and the resulting emulsion sustained by mixing periodically for a minimum of 3 minutes. The mixture was centrifuged at 3000 rpm for 20 minutes and the top aqueous phase containing the Cy-3-label transferred to a new test tube. The fluorescence of the solution was measured using an SLM Fluorimeter at an excitation wavelength of 550 nm (2 nm bandwidth) and emission wavelength of 600 nm (16 nm bandwidth). A standard curve was generated by spiking aliquots of plasma from untreated animals with the Cy-3-siRNA containing formulation (0 to 15 μg/mL), and the sample processed as indicated above.
# For liver, sections (400-500 mg) of tissue from saline-perfused animals was accurately weighed and homogenized in 1 mL of Trizol using Fastprep tubes. An aliquot of the homogenate (typically equivalent to 50 mg of tissue) was transferred to an eppendorf tube and additional Trizol added to 1 mL final. Chloroform (0.2 mL) was added, and the solution was mixed and incubated for 2-3 min before being centrifuged for 15 min at 12,000×g. An aliquot (0.5 mL) of the top Cy-3-containing aqueous phase was diluted with 0.5 mL of PBS and the fluorescence of the sample measured as described above.
# The correlation between levels of siRNA delivered to the liver and FVII reduction was determined by encapsulating Cy-3 labeled siRNA in the selection of LN-siRNA systems covering a spectrum of in vivo activities shown in Table 8. Cy-3 fluorescence was measured in plasma and liver tissue 0.5 and 3.0 h post injection.
# [3] = Table 6, siRNA dose reducing serum FVII protein by 50% at 24 h, PFV LN-siRNA 40/10/40/10
# [4] = Table 5, siRNA dose reducing serum FVII protein by 50% at 24 h, PFV LN-siRNA 40/10/40/10
# [5] = Table 7, siRNA dose reducing serum FVII protein by 50% at 24 h, PFV LN-siRNA 40/10/40/10
# [6] = siRNA dose reducing serum FVII protein by 50% at 24 h, PFV LN-siRNA 40/10/40/10
# [7] = Table 3, siRNA dose reducing serum FVII protein by 50% at 24 h, single i.v. bolus, PFV LN-siRNA 40/10/40/10
# [8] = Table 8, FVII ED50 of the LN-siRNA system
# [9] = Table 4, siRNA dose reducing serum FVII protein by 50% at 24 h, PFV LN-siRNA 40/10/40/10
compound,measurement,setting,value
"2,2-dilinoleyl-4-N-morpholino-[1,3]-dioxolane [DLin-K-MA]",FVII activity at maximum dose tested,[1]; 15 mg/kg maximum dose,inactive
same,ED50,[1]; [3],>15 mg/kg
same,FVII ED50,[1]; Table 11,>15 mg/kg
"CCCCCCCC/C=C\CCCCCCCCOCC(CN(C)C)OCCCCCCCC/C=C\CCCCCCCC (centres unmarked) [DODMA, reference compound]",ED50,[1]; [4],2 to 5 mg/kg
same,fold less active than DLinDMA,[1],2 to 5 fold
CCCCCCCCCCCCCCCCCCC1(CCCCCCCCCCCCCCCCCC)OCC(CN(C)C)O1 (centres unmarked) [DS-K-DMA],ED50,[1]; [5],~8.0 mg/kg
same,ED50,[1]; [6],~8.0 mg/kg
"CCCCCCCC/C=C\CCCCCCCC(=O)OCC(C[N+](C)(C)C)OC(=O)CCCCCCC/C=C\CCCCCCCC.[Cl-] (centres unmarked) [DOTAP.Cl, 1,2-Dioleyloxy-3-trimethylaminopropane chloride salt, reference compound]",ED50,[1]; [4],>25 mg/kg
"CCCCC/C=C\C/C=C\CCCCCCCCOCC(CN1CCOCC1)OCCCCCCCC/C=C\C/C=C\CCCCC (centres unmarked) [DLinMA, 1,2-Dilinoleyloxy-3-morpholinopropane]",ED50,[1]; [7],12 to 25 mg/kg
same,ED50,[1]; [8],12 to 25 mg/kg
same,ED50,[1]; [6],12 to 25 mg/kg
CCCC/C=C\CCCCCCCC(=O)OCC(CN(C)C)OC(=O)CCCCCCC/C=C\CCCC (centres unmarked) [DMDAP],FVII activity at maximum dose tested,[1]; 10 mg/kg maximum dose,no activity was observed
same,ED50,[1]; [4],>10 mg/kg
CCCCC/C=C\C/C=C\CCCCCCCCN(CCCCCCCC/C=C\C/C=C\CCCCC)CC(O)CO (centres unmarked) [DLinAP],ED50,[1]; [4],5 to 12 mg/kg
same,ED50,[1]; [8],5 to 12 mg/kg
same,ED50,[1]; [6],5 to 12 mg/kg
"CCCCC/C=C\C/C=C\CCCCCCCCC1(CCCCCCCC/C=C\C/C=C\CCCCC)OC(CN(C)C)C(CN(C)C)O1 (centres unmarked) [DLin-K^2-DMA, 2,2-Dilinoleyl-4,5-bis(dimethylaminomethyl)-[1,3]-dioxolane]",ED50,[1]; [3],~0.4 mg/kg
CCCCC/C=C\C/C=C\CCCCCCCC(=O)OCC(C[N+](C)(C)C)OC(=O)CCCCCCC/C=C\C/C=C\CCCCC.[Cl-] (centres unmarked) [DLinTAP.Cl],ED50,[1]; [4],>25 mg/kg
"CCCCC/C=C\C/C=C\CCCCCCCCNC(=O)OCC(CN(C)C)OC(=O)NCCCCCCCC/C=C\C/C=C\CCCCC (centres unmarked) [DLin-C-DAP, 1,2-Dilinoleylcarbamoyloxy-3-dimethylaminopropane]",Liver Cy-3 siRNA,[2]; 0.5 h post injection,28.5 % injected dose
same,Plasma Cy-3 siRNA,[2]; 0.5 h post injection,69.4 % injected dose
same,Liver Cy-3 siRNA,[2]; 3.0 h post injection,13.5 % injected dose
same,Plasma Cy-3 siRNA,[2]; 3.0 h post injection,19.0 % injected dose
same,ED50,[1]; [9],12 to 25 mg/kg
same,ED50,[1]; [8],12 to 25 mg/kg
"CCCCC/C=C\C/C=C\CCCCCCCCC1(CCCCCCCC/C=C\C/C=C\CCCCC)OCC([N+](C)(C)C)O1.[Cl-] (centres unmarked) [DLin-K-TMA.Cl, 2,2-Dilinoleyl-4-trimethylamino-[1,3]-dioxolane Chloride]",FVII activity,[1]; 5 mg/kg,No activity observed
same,body weight,"[1]; 5 mg/kg, data not shown",significant weight loss
same,FVII activity,"[1]; 5 mg/kg, listed as DLin-K-TMA",No activity was observed
same,survival,[1],lethal
same,survival,[1]; listed as DLin-K-TMA,did not survive
same,ED50,[1]; [3],>5^a mg/kg
"1,2-Dilinoleyloxy-3-trimethylaminopropane chloride [DLinTMA.Cl]",ED50,[1]; [7],2 to 5 mg/kg
"CCCCC/C=C\C/C=C\CCCCCCCCOCC(CN1CCN(C)CC1)OCCCCCCCC/C=C\C/C=C\CCCCC (centres unmarked) [DLinMPZ, 1,2-Dilinoleyloxy-3-(N-methylpiperazino) propane]",ED50,[1]; [7],2 to 5 mg/kg
same,ED50,[1]; [8],2 to 5 mg/kg
CCCCCCCC/C=C\CCCCCCCCC1(CCCCCCCC/C=C\CCCCCCCC)OCC(CN(C)C)O1 (centres unmarked) [DO-K-DMA],ED50,[1]; [5],~1.0 mg/kg
same,ED50,[1]; [6],~1.0 mg/kg
"CCCCC/C=C\C/C=C\CCCCCCCCSCC(CN(C)C)SCCCCCCCC/C=C\C/C=C\CCCCC (centres unmarked) [DLin-S-DMA, 1 ,2-Dilinoleylthio-3-dimethylaminopropane]",ED50,[1]; [9],12 to 25 mg/kg
same,ED50,[1]; [8],12 to 25 mg/kg
"CCCCCCCC/C=C\CCCCCCCC(=O)OCC(CN(C)C)OC(=O)CCCCCCC/C=C\CCCCCCCC (centres unmarked) [DODAP, 1,2-dioleoyl-3-dimethylammonium propane, reference compound]",ED50,[1]; [4],>25 mg/kg
same,fold less active than DLinDMA,[1],more than 25 fold
CCCCC/C=C\C/C=C\CCCCCCCCC1(CCCCCCCC/C=C\C/C=C\CCCCC)OCC(CN(C)C)O1 (stereo not drawn) [DLin-K-DMA (+)],ED50,[1]; [6],~0.3 mg/kg
"1,2-Dilinoleyloxy-3-(2-N,N-dimethylamino) ethoxypropane [DLin-EG-DMA]",ED50,[1]; [7],5 to 12 mg/kg
"CCCCC/C=C\C/C=C\CCCCCCCCC(CCCCCCCC/C=C\C/C=C\CCCCC)OC(=O)CCN(C)C [DLin-M-DMA, Dilinoleylmethyl 3-Dimethylaminopropionate]",ED50,[1]; [5],~0.7 mg/kg
same,ED50,[1]; [6],~0.7 mg/kg
CCCCCCCC/C=C\CCCCCCCCNC(=O)OCC(CN(C)C)OC(=O)NCCCCCCCC/C=C\CCCCCCCC (centres unmarked) [DO-C-DAP],FVII activity at maximum dose tested,[1]; 10 mg/kg maximum dose,inactive
same,ED50,[1]; [4],>10 mg/kg
"CCCCC/C=C\C/C=C\CCCCCCCCOCC(COC(=O)CN(C)C)OCCCCCCCC/C=C\C/C=C\CCCCC (centres unmarked) [DLinDAC, 1,2-Dilinoleyloxy-3-(dimethylamino) acetoxypropane]",ED50,[1]; [7],5 to 12 mg/kg
same,ED50,[1]; [8],12 to 25 mg/kg
